# Results reported in publication PMC9525273 (Nature Communications, 2022).
# Where “and” joins values, the source holds several entries; their conditions need not be identical. Equal entries are not always repeated. Where two headings read alike, the source gives them in different places.
# Legend:
# [1] = tested on: NF54^WT parasites; test: microbe, parasite or virus in culture; assay type: cell-based, Plasmodium falciparum; details: for FC (IC50) / FC (IC90): reference line
# Outline: (§1)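 Predominantly ring-stage cultures at 0.3% parasitaemia, 1% haematocrit, in medium with 10% O+ human serum; compound exposure 72 h, DMSO <0.5% (v/v). Live parasites counted by flow cytometry with SYBR Green I and 200 nM MitoTracker Deep Red. IC50/IC90 from linear interpolation of dose-response data.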
# [2] = target: T1, PfATP4^G358S (membranes from Dd2-Polδ-PfATP4^G358S parasites) (Plasmodium falciparum, UniProt A0A143ZZK9, G358S); test: Membrane ATPase assay, ATP4-associated (Na+-dependent) ATPase activity; assay type: biochemical; parameters: IC50 for inhibition of ATP4-associated ATPase activity, MEAN / IC50 for inhibition of ATP4-associated ATPase activity: unit: nM; details: for IC50 for ATP4-associated ATPase activity: membranes from Dd2-Polδ-PfATP4G358S, mean ± SEM; for PfATP4-associated ATPase activity (% of control): Dd2-Polδ-PfATP4G358S
# T1 sequence (A0A143ZZK9 1-1264 G358S): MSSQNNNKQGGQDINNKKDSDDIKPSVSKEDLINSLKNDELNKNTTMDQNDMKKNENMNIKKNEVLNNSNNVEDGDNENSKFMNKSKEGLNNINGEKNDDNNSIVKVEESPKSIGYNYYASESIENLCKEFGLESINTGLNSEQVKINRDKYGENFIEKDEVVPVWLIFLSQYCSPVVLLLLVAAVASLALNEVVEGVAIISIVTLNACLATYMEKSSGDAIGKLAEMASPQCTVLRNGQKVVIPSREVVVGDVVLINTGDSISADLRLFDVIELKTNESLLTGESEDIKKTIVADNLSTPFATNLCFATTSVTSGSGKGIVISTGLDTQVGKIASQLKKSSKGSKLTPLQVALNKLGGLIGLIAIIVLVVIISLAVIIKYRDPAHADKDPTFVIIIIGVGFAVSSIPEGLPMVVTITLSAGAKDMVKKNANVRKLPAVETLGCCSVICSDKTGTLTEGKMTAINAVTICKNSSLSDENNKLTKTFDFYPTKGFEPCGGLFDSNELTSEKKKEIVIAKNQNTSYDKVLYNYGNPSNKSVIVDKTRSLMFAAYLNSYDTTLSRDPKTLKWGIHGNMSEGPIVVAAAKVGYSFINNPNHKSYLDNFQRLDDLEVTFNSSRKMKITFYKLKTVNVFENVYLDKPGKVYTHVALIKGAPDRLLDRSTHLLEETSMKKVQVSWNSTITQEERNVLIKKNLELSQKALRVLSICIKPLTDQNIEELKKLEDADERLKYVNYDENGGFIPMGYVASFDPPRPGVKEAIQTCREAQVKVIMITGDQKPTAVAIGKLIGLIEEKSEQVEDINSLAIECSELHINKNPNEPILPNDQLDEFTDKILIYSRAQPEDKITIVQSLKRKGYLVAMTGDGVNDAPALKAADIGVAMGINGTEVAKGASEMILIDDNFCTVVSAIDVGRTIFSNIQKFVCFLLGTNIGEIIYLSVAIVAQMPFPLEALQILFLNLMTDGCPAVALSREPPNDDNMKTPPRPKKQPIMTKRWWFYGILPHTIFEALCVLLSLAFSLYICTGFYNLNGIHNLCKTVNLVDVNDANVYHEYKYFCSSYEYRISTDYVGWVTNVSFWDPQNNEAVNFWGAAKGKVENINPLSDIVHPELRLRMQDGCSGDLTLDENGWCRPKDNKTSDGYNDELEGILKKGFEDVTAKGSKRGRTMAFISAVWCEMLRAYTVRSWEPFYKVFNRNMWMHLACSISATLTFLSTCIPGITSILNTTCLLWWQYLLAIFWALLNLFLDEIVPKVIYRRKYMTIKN
# Method: Membranes from isolated P. falciparum or extracellular T. gondii parasites were prepared by lysing parasites in ice-cold deionized water containing a 1:500 dilution of Protease Inhibitor Cocktail Set III (Merck Millipore), then washing the membrane preparation three times in ice-cold deionized water (with protease inhibitors present for the first two washes)[15]. Protein concentrations in the membrane preparations were measured using a Bradford assay. The PiColorLock Gold Phosphate Detection System (Innova Biosciences) was used to measure the production of Pi from hydrolysis of ATP[15]. Membrane preparations were diluted in either a high Na^+ solution (yielding final conditions in the reactions of 150 mM NaCl, 20 mM KCl, 2 mM MgCl2, 50 mM Tris, pH 7.2) or a Na^+-free solution (yielding final conditions of 150 mM choline chloride, 20 mM KCl, 2 mM MgCl2, 50 mM Tris, pH 7.2) to achieve a total protein concentration of 50 μg/mL. […] The reactions were performed at 37 °C, and were initiated by the addition of 1 mM ATP (Na2ATP۰3H2O; MP Biomedicals) and terminated 10 min later by adding 100 μL of reaction mixture (in duplicate) to 25 μL “Gold mix” in a 96-well plate. […] Background values (averaged from wells containing all components, but to which ATP was not added until after the membrane was exposed to Gold mix) were subtracted from the data. For each treatment, the ATPase activity associated with the (Na^+-dependent) PfATP4 and TgATP4 proteins was calculated by subtracting data obtained in the low Na^+ condition (containing only the 2 mM Na^+ introduced on addition of 1 mM Na2ATP) from that obtained in the high Na^+ condition.
# [3] = tested on: NF54^CTL parasites; test: P. falciparum proliferation assay (72 h, flow cytometry, SYBR Green I/MitoTracker); assay type: cell-based, Plasmodium falciparum; details: for FC (IC50) / FC (IC90): NF54CTL compared to NF54WT
# Outline: as §1
# [4] = NF54WT parasites, individual experiments, read-out: IC90 values
# [5] = NF54WT, single experiments, source data of Fig. 2 (nM in Supplementary Table 5), read-out: IC50 values
# [6] = Plasmodium falciparum, NF54, NF54WT parasites, individual experiments, read-out: IC90 values
# [7] = Plasmodium falciparum, NF54, NF54WT parasites, mean of the experiments, read-out: IC90 values, MEAN
# [8] = Plasmodium falciparum, NF54, NF54WT, MEAN, source data of Fig. 2, read-out: IC50 values, MEAN
# [9] = Plasmodium falciparum, NF54, NF54WT, single experiments, source data of Fig. 2 (nM in Supplementary Table 5), read-out: IC50 values
# [10] = NF54CTL parasites, individual experiments, read-out: IC90 values
# [11] = Plasmodium falciparum, NF54, NF54CTL parasites, mean of the experiments, read-out: IC90 values, MEAN
# [12] = Plasmodium falciparum, NF54, NF54CTL, MEAN, source data of Fig. 2, read-out: IC50 values, MEAN
structure (smiles),measurement,setting,value
N#Cc1cc(NC(=O)[C@H]2c3ccccc3C(=O)N(CC(F)(F)F)[C@@H]2c2cccnc2)ccc1F [(+)-SJ733],IC90,[1]; [4],171 nM and 165 nM and 176 nM
same,FC (IC50),[1]; NF54WT,1.0 fold
same,FC (IC90),[1]; NF54WT,1.0 fold
same,IC50,[1]; [5],89.8 nM and 87.1 nM and 107 nM
same,IC90,[1]; [6],141 nM
same,IC90,[1]; [7],164 nM
same,IC50,[1]; [8],93.8 nM
same,IC50,[1]; [9],91.6 nM
same,IC50 for inhibition of ATP4-associated ATPase activity,"[2]; Dd2-Polδ-PfATP4G358S membranes, single experiments, source data of Table 1 (nM there)",816 and 877 and 793
same,IC50 for ATP4-associated ATPase activity,[2],829 ± 25 (3) (P = 5 × 10^−6) nM
same,FC (IC50),[3],0.9 fold
same,FC (IC90),[3],0.9 fold
same,IC90,[3]; [10],130 nM and 156 nM and 157 nM
same,IC50,"[3]; NF54CTL, single experiments, source data of Fig. 2 (nM in Supplementary Table 5), read-out: IC50 values",85.7 nM and 81.4 nM and 82.7 nM
same,IC90,[3]; [11],150 nM
same,IC50,[3]; [12],84.8 nM
same,IC50,"[3]; Plasmodium falciparum, NF54, NF54CTL, single experiments, source data of Fig. 2 (nM in Supplementary Table 5), read-out: IC50 values",89.3 nM
N#Cc1cc(NC(=O)[C@H]2c3ccccc3C(=O)N(CC(F)(F)F)[C@@H]2c2cccnc2)ccc1F [(+)SJ733],PfATP4-associated ATPase activity (% of control),"[2]; [(+)SJ733] 0.122 nM, MEAN",85.0 % of control
same,PfATP4-associated ATPase activity (% of control),"[2]; [(+)SJ733] 0.122 nM, single experiments, 0.000122 µM",115.8 % of control and 74.1 % of control and 65.2 % of control
same,PfATP4-associated ATPase activity (% of control),"[2]; [(+)SJ733] 0.244 nM, MEAN",125.3 % of control
same,PfATP4-associated ATPase activity (% of control),"[2]; [(+)SJ733] 0.244 nM, single experiments, 0.000244 µM",139.0 % of control and 119.0 % of control and 117.8 % of control
same,PfATP4-associated ATPase activity (% of control),"[2]; [(+)SJ733] 0.5 nM, MEAN",90.2 % of control
same,PfATP4-associated ATPase activity (% of control),"[2]; [(+)SJ733] 0.5 nM, single experiments, 0.0005 µM",95.6 % of control and 76.4 % of control and 98.6 % of control
same,PfATP4-associated ATPase activity (% of control),"[2]; [(+)SJ733] 1.0 nM, MEAN",98.3 % of control
same,PfATP4-associated ATPase activity (% of control),"[2]; [(+)SJ733] 2.0 nM, MEAN",109.4 % of control
same,PfATP4-associated ATPase activity (% of control),"[2]; [(+)SJ733] 2.0 nM, single experiments, 0.002 µM",114.6 % of control and 135.7 % of control and 77.8 % of control
same,PfATP4-associated ATPase activity (% of control),"[2]; [(+)SJ733] 3.9 nM, MEAN",81.9 % of control
same,PfATP4-associated ATPase activity (% of control),"[2]; [(+)SJ733] 3.9 nM, single experiments, 0.0039 µM",93.0 % of control and 73.2 % of control and 79.5 % of control
same,PfATP4-associated ATPase activity (% of control),"[2]; [(+)SJ733] 7.8 nM, MEAN",84.3 % of control
same,PfATP4-associated ATPase activity (% of control),"[2]; [(+)SJ733] 7.8 nM, single experiments, 0.0078 µM",82.0 % of control and 99.5 % of control and 71.2 % of control
same,PfATP4-associated ATPase activity (% of control),"[2]; [(+)SJ733] 15.6 nM, MEAN",119.8 % of control
same,PfATP4-associated ATPase activity (% of control),"[2]; [(+)SJ733] 15.6 nM, single experiments, 0.0156 µM",88.8 % of control and 152.3 % of control and 118.3 % of control
same,PfATP4-associated ATPase activity (% of control),"[2]; [(+)SJ733] 31.3 nM, MEAN",94.2 % of control
same,PfATP4-associated ATPase activity (% of control),"[2]; [(+)SJ733] 31.3 nM, single experiments, 0.0313 µM",92.0 % of control and 104.2 % of control and 86.4 % of control
same,PfATP4-associated ATPase activity (% of control),"[2]; [(+)SJ733] 62.5 nM, MEAN",103.2 % of control
same,PfATP4-associated ATPase activity (% of control),"[2]; [(+)SJ733] 62.5 nM, single experiments, 0.0625 µM",102.4 % of control and 79.6 % of control and 127.6 % of control
same,PfATP4-associated ATPase activity (% of control),"[2]; [(+)SJ733] 250 nM, MEAN",82.2 % of control
same,PfATP4-associated ATPase activity (% of control),"[2]; [(+)SJ733] 250 nM, single experiments, 0.25 µM",91.0 % of control and 86.1 % of control and 69.4 % of control
same,PfATP4-associated ATPase activity (% of control),"[2]; [(+)SJ733] 500 nM, MEAN",53.9 % of control
same,PfATP4-associated ATPase activity (% of control),"[2]; [(+)SJ733] 1000 nM, MEAN",56.2 % of control
same,PfATP4-associated ATPase activity (% of control),"[2]; [(+)SJ733] 2000 nM, MEAN",20.4 % of control
same,PfATP4-associated ATPase activity (% of control),"[2]; [(+)SJ733] 4000 nM, MEAN",-1.2 % of control
same,PfATP4-associated ATPase activity (% of control),"[2]; [(+)SJ733] 8000 nM, MEAN",-15.8 % of control
C[C@H]1Cc2c([nH]c3cc(Cl)c(F)cc23)[C@@]2(N1)C(=O)Nc1ccc(Cl)cc12 [Cipargamin],IC90,[1]; [4],4.6 nM and 3.5 nM
same,FC (IC50),[1]; NF54WT,1.0 fold
same,FC (IC90),[1]; NF54WT,1.0 fold
same,IC50,[1]; [5],2.8 nM and 2.5 nM and 2.6 nM
same,IC90,[1]; [6],3.6 nM
same,IC90,[1]; [7],3.8 nM
same,IC50,[1]; [8],2.64 nM
same,IC50,[1]; [9],2.7 nM
same,"IC50 for inhibition of ATP4-associated ATPase activity, MEAN","[2]; Dd2-Polδ-PfATP4G358S membranes, MEAN, source data of Table 1 (nM there)",99.4
same,IC50 for ATP4-associated ATPase activity,[2],99 ± 21 (4) (P = 0.004) nM
same,FC (IC50),[3],1.0 fold
same,FC (IC90),[3],1.0 fold
same,IC90,[3]; [10],3.6 nM and 3.4 nM
same,IC90,"[3]; Plasmodium falciparum, NF54, NF54CTL parasites, individual experiments, read-out: IC90 values",4.1 nM
same,IC90,[3]; [11],3.7 nM
same,IC50,"[3]; Plasmodium falciparum, NF54, NF54CTL, 10% human serum, read-out: IC50 ± SEM",2.6 ± 0.1 nM
same,IC50,[3]; [12],2.55 nM
